{"source": "patent US4172943A", "about": "“(8-Substituted-10-hydroxy-5,5-dimethyl-1,2 ,3,4-tetrahydro-5H-(1)benzopyrano(4,3-C)pyridin-2-yl)acetyl ureas and derivatives” (Abbott Laboratories, priority 1978, dated 1979)", "key": {"[1]": {"test_system": "methamphetamine-induced hyperactivity in rats", "assay": "Rat Desoxyn Antagonism Test", "format": "in vivo", "details": "methamphetamine 1 mg./kg., i.p.", "method": "In this test, the antagonism or potentiation of methamphetamine-induced hyperactivity in rats was evaluated in motor activity chambers equipped with photocells (Lehigh Valley, Model #1497). Groups of rats were premedicated with Compound (V) and then administered methamphetamine (1 mg./kg., i.p.). One rat was placed in each chamber and three rats were used per test dose. Effect was recorded as percent change in counts from the photocells compared to methamphetamine-treated controls."}, "[2]": {"test_system": "response time to radiated heat focused on the tail (rat tail flick)", "assay": "Rat Tail Flick Test", "format": "in vivo, male, Sprague-Dawley rats", "details": "for average response time, 1 Hr. / Activity - Increase in Response Time (2 Hrs.) / average response time, 2 Hrs. / average response time, 3 Hrs.: p.o.", "method": "In this test, groups of 10 male, Sprague-Dawley rats, weighing 142-170 g. were orally (p.o.) gavaged with compound (V) after the average normal response time to radiated heat focused on the tail had been established by two trials. Response times were recorded hourly for 3 hours after the administration of the compound. The activity was determined as the percent increase in response time over the average normal response for the response for the respective group. An ED50 value representing the dose producing a 50% increase in average response time was calculated by a linear regression program."}, "[3]": {"test_system": "acetic acid writhing response", "assay": "Mouse (Acetic Acid) Writhing Test", "format": "in vivo, female, ICR mice", "details": "for Activity % Inhibition / Ave. Number of Writhes (20 min.): p.o., one hour before acetic acid; for Ave. Number of Writhes (20 min.): controls 55.0", "method": "In this test, groups of 5 female, ICR mice (Schmidt) weighing 19-25 g. were orally (p.o.) gavaged with compound (V) one hour prior to the intraperitoneal injection of 0.4 ml. of acetic acid 0.5% (v/v). Five minutes after the acid injection, the number of writhing responses over a 20 minute period were counted. One group received an oral dose of vehicle only to serve as controls. Activity was determined as the percent difference (inhibition) between the average number of writhes for the test groups as compared to the controls. An ED50 value representing the dose producing a 50% inhibition of the writhing response was calculated by a linear regression program."}}}
{"smiles": "CC(CCCc1ccc(F)cc1)c1cc(O)c2c(c1)OC(C)(C)C1=C2CN(CC(=O)NC(N)=O)CC1", "note": "(centres unmarked) [Compound V, {{8-[5-(4-Fluorophenyl)-2-pentyl]-10-hydroxy-5,5-dimethyl-1,2,3,4-tetrahydro-5H-[1]benzopyrano[4,3-c]pyridin-2-yl}acetyl}urea]", "values": [{"measurement": "% Decreased Activity Over Control", "setting": "[1]; oral dose 5 mg./kg.", "result": 75, "unit": "%"}, {"measurement": "% Decreased Activity Over Control", "setting": "[1]; oral dose 20 mg./kg.", "result": 93, "unit": "%"}, {"measurement": "% Decreased Activity Over Control", "setting": "[1]; oral dose 80 mg./kg.", "result": 84, "unit": "%"}, {"measurement": "average response time, 1 Hr.", "setting": "[2]; 1.0 mg./kg., Normal 8.03", "result": 9.03, "unit": "s"}, {"measurement": "Activity - Increase in Response Time (2 Hrs.)", "setting": "[2]; 1.0 mg./kg., 2 hrs", "result": 30.0, "unit": "%"}, {"measurement": "average response time, 2 Hrs.", "setting": "[2]; 1.0 mg./kg., 2 hrs, Normal 8.03", "result": 10.44, "unit": "s"}, {"measurement": "average response time, 3 Hrs.", "setting": "[2]; 1.0 mg./kg., Normal 8.03", "result": 11.22, "unit": "s"}, {"measurement": "average response time, 1 Hr.", "setting": "[2]; 2.0 mg./kg., Normal 6.80", "result": 8.92, "unit": "s"}, {"measurement": "Activity - Increase in Response Time (2 Hrs.)", "setting": "[2]; 2.0 mg./kg., 2 hrs", "result": 56.0, "unit": "%"}, {"measurement": "average response time, 2 Hrs.", "setting": "[2]; 2.0 mg./kg., 2 hrs, Normal 6.80", "result": 10.61, "unit": "s"}, {"measurement": "average response time, 3 Hrs.", "setting": "[2]; 2.0 mg./kg., Normal 6.80", "result": 10.99, "unit": "s"}, {"measurement": "average response time, 1 Hr.", "setting": "[2]; 4.0 mg./kg., Normal 8.30", "result": 11.13, "unit": "s"}, {"measurement": "Activity - Increase in Response Time (2 Hrs.)", "setting": "[2]; 4.0 mg./kg., 2 hrs", "result": 95.2, "unit": "%"}, {"measurement": "average response time, 2 Hrs.", "setting": "[2]; 4.0 mg./kg., 2 hrs, Normal 8.30", "result": 16.20, "unit": "s"}, {"measurement": "average response time, 3 Hrs.", "setting": "[2]; 4.0 mg./kg., Normal 8.30, average includes maximum values (30 seconds cut-off time)", "result": 16.98, "unit": "s"}, {"measurement": "average response time, 1 Hr.", "setting": "[2]; 8.0 mg./kg., Normal 7.97, average includes maximum values (30 seconds cut-off time)", "result": 13.63, "unit": "s"}, {"measurement": "Activity - Increase in Response Time (2 Hrs.)", "setting": "[2]; 8.0 mg./kg., 2 hrs", "result": 98.6, "unit": "%"}, {"measurement": "average response time, 2 Hrs.", "setting": "[2]; 8.0 mg./kg., 2 hrs, Normal 7.97, average includes maximum values (30 seconds cut-off time)", "result": 15.83, "unit": "s"}, {"measurement": "average response time, 3 Hrs.", "setting": "[2]; 8.0 mg./kg., Normal 7.97", "result": 14.32, "unit": "s"}, {"measurement": "ED50", "setting": "[2]; Rattus norvegicus, po, 2 hrs, dose producing 50% increase in average response time, linear regression, (0.02, 3.19) printed after value", "result": 1.6, "unit": "mg/kg"}, {"measurement": "Activity % Inhibition", "setting": "[3]; 0.5 mg./kg.", "result": 48.4, "unit": "%"}, {"measurement": "Ave. Number of Writhes (20 min.)", "setting": "[3]; 0.5 mg./kg.", "result": 28.4}, {"measurement": "Activity % Inhibition", "setting": "[3]; 1.0 mg./kg.", "result": 50.2, "unit": "%"}, {"measurement": "Ave. Number of Writhes (20 min.)", "setting": "[3]; 1.0 mg./kg.", "result": 27.4}, {"measurement": "Activity % Inhibition", "setting": "[3]; 2.0 mg./kg.", "result": 72.4, "unit": "%"}, {"measurement": "Ave. Number of Writhes (20 min.)", "setting": "[3]; 2.0 mg./kg.", "result": 15.2}, {"measurement": "Activity % Inhibition", "setting": "[3]; 4.0 mg./kg.", "result": 89.1, "unit": "%"}, {"measurement": "Ave. Number of Writhes (20 min.)", "setting": "[3]; 4.0 mg./kg.", "result": 6.0}, {"measurement": "ED50", "setting": "[3]; Mus musculus, po, dose producing 50% inhibition of writhing response, linear regression, (0.4, 1.0) printed after value", "result": 0.7, "unit": "mg/kg"}]}
